Values quoted from earlier work as cited in patent US20170165321A1, “METHOD FOR REDUCING AND/OR DELAYING PATHOLOGICAL EFFECTS OF HUMAN IMMUNODEFICIENCY VIRUS I (HIV) OR FOR REDUCING THE RISK OF DEVELOPING ACQUIRED IMMUNODEFICIENCY SYNDROME (AIDS)” (Bionor Immuno AS, priority 2014, published 2017).

How the values were obtained:
HIV-specific T-cells = conditions: IMiD present during in vitro T-cell stimulation; Keersmaecker et al.; cited from earlier work
[1] = tested on: HIV-1 expression in latently infected cell lines and primary T cells; conditions: cited from earlier work

Compound | function of the T-cells (HIV-specific T-cells) | activation of HIV-1 expression [1]
Nc1cccc2c1CN(C1CCC(=O)NC1=O)C2=O (stereo not drawn) [Lenalidomide] | a number of improvements in the function of the T-cells | –
Nc1cccc2c1C(=O)N(C1CCC(=O)NC1=O)C2=O (stereo not drawn) [pomalidomide] | a number of improvements in the function of the T-cells | –
C/C=C1\NC(=O)[C@H]2CSSCC/C=C/[C@H](CC(=O)N[C@H](C(C)C)C(=O)N2)OC(=O)[C@H](C(C)C)NC1=O [romidepsin, (1S,4S,7Z,10S,16E,21R)-7-ethylidene-4,21-bis(1-methylethyl)-2-oxa-12,13-dithia-5,8,20,23-tetraazabicyclo[8.7.6] tricos-16-ene-3,6,9,19,22-pentone] | – | potently activates HIV-1 expression
